Experimental data reported in patent US6873914B2, “Methods and systems for analyzing complex biological systems” (Icoria, Inc., priority 2001, dated 2005).
“Also recorded” adds a separate entry of the source.

Legend:
[1] = system: Arabidopsis thaliana plants; assay: SOA1 phenotypic analysis of herbicide-treated Arabidopsis plants; type: in vivo; conditions: for Symptom Class: Arabidopsis sprayed with herbicide, phenotypes of the classes pictured in FIG. 12; for leafCurling (Dev.) / leafTwisting (Dev.) / leafWidth (Dev.) / matureLeafAnthocyanins (Dev.) / matureLeafChlorosis (Dev.) / matureLeafNecrosis (Dev.) / newLeafAnthocyanins (Dev.) / newLeafChlorosis (Dev.) / newLeafNecrosis (Dev.) / pointedLeaves (Dev.): numeric value standardized to mock treated plants; for tMic (Dev.): score for time required to exhibit full range of symptoms at the MIC; for characteristic symptoms (morphological phenotype): in words
[2] = system: Arabidopsis thaliana; assay: MOA1 phenotypic profiling of Arabidopsis sprayed with unknown and commercial herbicides; type: in vivo; conditions: in words
[3] = system: Arabidopsis thaliana; assay: MOA1 gene expression profiling (22,000 gene array) of treated Arabidopsis; type: in vivo; conditions: for gene expression perturbations compared to the other treatments: MOA1, 1 hr; for No. of Lethal Genes Altered: regulated genes identified as essential for plant growth and development (internal database)
[4] = system: Saccharomyces cerevisiae wild type strain BY4743; assay: AF1 metabolite analysis (GC-MS, LC-MS) of yeast cells treated with antifungal drugs; type: cell-based
[5] = system: Magnaporthe grisea; type: cell-based
[6] = system: Arabidopsis thaliana; assay: MOA1 biochemical (metabolite) profiling by LC-MS and GC-MS of treated Arabidopsis; conditions: after one hour
[7] = system: PSI, PROTOX; assay: PSI / PROTOX inhibition (unpublished data)

O=C(O)COc1ccc(Cl)cc1Cl [2,4-D]
Symptom Class [1]: 5 | leafCurling (Dev.) [1]: 1 | leafTwisting (Dev.) [1]: 2 | leafWidth (Dev.) [1]: −1 | matureLeafAnthocyanins (Dev.) [1]: 1 | matureLeafChlorosis (Dev.) [1]: 2 | matureLeafNecrosis (Dev.) [1]: 0 | newLeafAnthocyanins (Dev.) [1]: 0 | newLeafChlorosis (Dev.) [1]: 1 | newLeafNecrosis (Dev.) [1]: 0 | pointedLeaves (Dev.) [1]: 0 | tMic (Dev.) [1]: 2

O=C(O)c1cc(Oc2ccc(C(F)(F)F)cc2Cl)ccc1[N+](=O)[O-] [Acifluorfen]
characteristic symptoms (morphological phenotype) [1]: Necrotic leaf flecks

Nc1nc[nH]n1 [Amitrole]
characteristic symptoms (morphological phenotype) [1]: leaf bleaching and leaf enlargement | phenotype / hierarchical cluster analysis of the eleven phenotypic characteristics [2]: exhibited chlorosis and not true bleaching

COC(=O)NS(=O)(=O)c1ccc(N)cc1 [Asulam]
gene expression perturbations compared to the other treatments [3]: fewest gene expression perturbations | No. of Lethal Genes Altered [3]: 5

CCNc1nc(Cl)nc(NC(C)C)n1 [Atrazine]
characteristic symptoms (morphological phenotype) [1]: rapid and widespread leaf necrosis

CC(C)N1C(=O)c2ccccc2NS1(=O)=O [Bentazon]
characteristic symptoms (morphological phenotype) [1]: rapid and widespread leaf necrosis

COC(=O)c1cc(Oc2ccc(Cl)cc2Cl)ccc1[N+](=O)[O-] [Bifenox]
characteristic symptoms (morphological phenotype) [1]: Necrotic leaf flecks

CCSC(=O)N(CC(C)C)CC(C)C [Butylate]
phenotype / hierarchical cluster analysis of the eleven phenotypic characteristics [2]: neither showed a strong herbicidal phenotype

CC(C)OC(=O)Nc1cccc(Cl)c1 [Chloropropham]
phenotype / hierarchical cluster analysis of the eleven phenotypic characteristics [2]: neither showed a strong herbicidal phenotype

COc1nc(C)nc(NC(=O)NS(=O)(=O)c2ccccc2Cl)n1 [Chlorsulfuron]
characteristic symptoms (morphological phenotype) [1]: anthocyanin accumulation in the older leaves accompanied by chlorosis of the newly emerging leaves | No. of Lethal Genes Altered [3]: 8

c1cc[n+]2c(c1)-c1cccc[n+]1CC2 [Diquat]
Symptom Class [1]: 7 | characteristic symptoms (morphological phenotype) [1]: rapid and widespread leaf necrosis | leafCurling (Dev.) [1]: 2 | leafTwisting (Dev.) [1]: 0 | leafWidth (Dev.) [1]: −2 | matureLeafAnthocyanins (Dev.) [1]: 0 | matureLeafChlorosis (Dev.) [1]: 1 | matureLeafNecrosis (Dev.) [1]: 4 | newLeafAnthocyanins (Dev.) [1]: 0 | newLeafChlorosis (Dev.) [1]: 1 | newLeafNecrosis (Dev.) [1]: 4 | pointedLeaves (Dev.) [1]: 1 | tMic (Dev.) [1]: 2

CN(C)C(=O)Nc1ccc(Cl)c(Cl)c1 [Diuron]
Symptom Class [1]: 7 | characteristic symptoms (morphological phenotype) [1]: rapid and widespread leaf necrosis | leafCurling (Dev.) [1]: 1 | leafTwisting (Dev.) [1]: 0 | leafWidth (Dev.) [1]: −2 | matureLeafAnthocyanins (Dev.) [1]: 0 | matureLeafChlorosis (Dev.) [1]: 2 | matureLeafNecrosis (Dev.) [1]: 4 | newLeafAnthocyanins (Dev.) [1]: 0 | newLeafChlorosis (Dev.) [1]: 2 | newLeafNecrosis (Dev.) [1]: 4 | pointedLeaves (Dev.) [1]: 1 | tMic (Dev.) [1]: 1

OC(Cn1cncn1)(Cn1cncn1)c1ccc(F)cc1F [Fluconazole]
Fold Change: abscisic acid ([4]; LC): 0 | Fold Change: adenosine ([4]; LC): 0

CP(=O)(O)CCC(N)C(=O)O (centres unmarked) [Glufosinate]
Symptom Class [1]: 3 | characteristic symptoms (morphological phenotype) [1]: Chlorosis and leaf curling | leafCurling (Dev.) [1]: 2 | leafTwisting (Dev.) [1]: 1 | leafWidth (Dev.) [1]: −2 | matureLeafAnthocyanins (Dev.) [1]: 0 | matureLeafChlorosis (Dev.) [1]: 3 | matureLeafNecrosis (Dev.) [1]: 0 | newLeafAnthocyanins (Dev.) [1]: 0 | newLeafChlorosis (Dev.) [1]: 3 | newLeafNecrosis (Dev.) [1]: 0 | pointedLeaves (Dev.) [1]: 1 | tMic (Dev.) [1]: 1 | No. of Lethal Genes Altered [3]: 10

O=C(O)CNCP(=O)(O)O [Glyphosate]
Symptom Class [1]: 4 | characteristic symptoms (morphological phenotype) [1]: anthocyanin accumulation in the older leaves accompanied by chlorosis of the newly emerging leaves | leafCurling (Dev.) [1]: 0 | leafTwisting (Dev.) [1]: 0 | leafWidth (Dev.) [1]: 0 | matureLeafAnthocyanins (Dev.) [1]: 3 | matureLeafChlorosis (Dev.) [1]: 1 | matureLeafNecrosis (Dev.) [1]: 3 | newLeafAnthocyanins (Dev.) [1]: 1 | newLeafChlorosis (Dev.) [1]: 2 | newLeafNecrosis (Dev.) [1]: 0 | pointedLeaves (Dev.) [1]: 1 | tMic (Dev.) [1]: 2 | M. grisea growth with nitrate, nitrite, or glutamate as the sole nitrogen source [5]: inhibited growth | Growth of M. grisea with ammonium or glutamine as nitrogen source, Tier 4 ([5]; 250 μg/ml): Little growth defect | M. grisea growth results for Tiers 3 and 4 ([5]; 250 μg/ml): nearly identical as compared to Unknown 4 | M. grisea growth inhibition, effect of aromatic amino acids in the media ([5]; 1.0 mg/ml): remediated by inclusion of aromatic amino acids | tyrosine (downstream metabolite) relative to the control [6]: decreased

CC(C)C1(C)N=C(c2ncccc2C(=O)O)NC1=O (centres unmarked) [Imazapyr]
characteristic symptoms (morphological phenotype) [1]: anthocyanin accumulation in the older leaves accompanied by chlorosis of the newly emerging leaves

CCc1cnc(C2=NC(C)(C(C)C)C(=O)N2)c(C(=O)O)c1 (centres unmarked) [Imazethapyr]
characteristic symptoms (morphological phenotype) [1]: anthocyanin accumulation in the older leaves accompanied by chlorosis of the newly emerging leaves

CS(=O)(=O)c1cc(C(F)(F)F)ccc1C(=O)c1cnoc1C1CC1 [Isoxaflutole]
No. of Lethal Genes Altered [3]: 15 | M. grisea growth in minimal media ([5]; concentration insufficient to inhibit growth): unaffected | M. grisea growth in minimal plus tyrosine (sole nitrogen source) media ([5]; concentration insufficient to inhibit growth (sub-inhibitory)): inhibited | tyrosine and phenylalanine relative to the control [6]: up-regulated; also recorded: began to accumulate

CCc1cccc(C)c1N(C(=O)CCl)C(C)COC (centres unmarked) [Metolachlor]
PSI or PROTOX inhibitor [7]: neither a PSI nor a PROTOX inhibitor

CSc1nnc(C(C)(C)C)c(=O)n1N [Metribuzin]
characteristic symptoms (morphological phenotype) [1]: rapid and widespread leaf necrosis

O=C(O)c1ccccc1C(=O)Nc1cccc2ccccc12 [Naptalam]
gene expression perturbations compared to the other treatments [3]: fewest gene expression perturbations | No. of Lethal Genes Altered [3]: 3

C[n+]1ccc(-c2cc[n+](C)cc2)cc1 [Paraquat]
Symptom Class [1]: 7 | characteristic symptoms (morphological phenotype) [1]: rapid and widespread leaf necrosis

CC[C@@H]([C@H](C)O)n1ncn(-c2ccc(N3CCN(c4ccc(OC[C@@H]5CO[C@@](Cn6cncn6)(c6ccc(F)cc6F)C5)cc4)CC3)cc2)c1=O [Posaconazoie]
Fold Change ([4]; metabolite luteolin, platform LC): 0

CC[C@@H]([C@H](C)O)n1ncn(-c2ccc(N3CCN(c4ccc(OC[C@@H]5CO[C@@](Cn6cncn6)(c6ccc(F)cc6F)C5)cc4)CC3)cc2)c1=O [Posaconazole]
Fold Change ([4]; metabolite anthranilic acid, platform nLC): 0 | Fold Change ([4]; metabolite anthranilic acid, platform pLC): 0 | Fold Change ([4]; metabolite biotin, platform LC): 0

CC[C@@H]([C@H](C)O)n1ncn(-c2ccc(N3CCN(c4ccc(OC[C@@H]5CO[C@@](Cn6cncn6)(c6ccc(F)cc6F)C5)cc4)CC3)cc2)c1=O [Posaconazote]
Fold Change, porphobilinogen ([4]; detected metabolite, platform nLC, p-Value 1): 0
